From PMC5469273, “Discovery of Novel Small-Molecule Inhibitors of LIM Domain Kinase for Inhibiting HIV-1” (Journal of Virology, 2017) come the findings set out here.

Assay [1] has as its target PLK2 (Homo sapiens, UniProt Q9NYY3). In words: Kinase profiling (Reaction Biology): PLK2.
Assay [2] deals with Aurora A (Homo sapiens, UniProt O14965). In words: Kinase profiling (Reaction Biology): Aurora A.
For assay [3], the system named is phosphorylation of PAK2. The experiment in a line: Western blotting for PAK2 phosphorylation in CEM-SS T cells. As to conditions: 100 μM, time course. In general terms: Immunoblotting shows a protein as a band on a membrane.
The target in assay [4] is PAK2 (Homo sapiens, UniProt Q13177). The experiment in a line: Kinase profiling (Reaction Biology): PAK2.
The target of assay [5] is JAK3 (Homo sapiens, UniProt P52333). The experiment in a line: Kinase profiling (Reaction Biology): JAK3.
Assay [6] deals with HIV-1(Env). Format: cell-based.
For assay [7], the system named is VEEV-Luc (TC-83) and VEEV (TC-83). The experiment in a line: microbe, parasite or virus in culture. Format: cell-based. The following applies: Venezuelan equine encephalitis virus, Vero, read-out: IC50, inhibition of VEEV.
Assay [8] has as its system cofilin serine 3 phosphorylation. The experiment in a line: Western blotting for cofilin serine 3 phosphorylation in CEM-SS T cells. The following applies: 100 μM, time course.
The subject of assay [9] is Jurkat T cells. The experiment in a line: SDF-1-mediated chemotaxis assay (transwell). The following applies: Homo sapiens, 2 h, read-out: IC50, inhibition of Jurkat T cell chemotaxis, SDF-1 40 ng/ml, 2 h, transwell.

Sequence of Aurora A (O14965 whole entry): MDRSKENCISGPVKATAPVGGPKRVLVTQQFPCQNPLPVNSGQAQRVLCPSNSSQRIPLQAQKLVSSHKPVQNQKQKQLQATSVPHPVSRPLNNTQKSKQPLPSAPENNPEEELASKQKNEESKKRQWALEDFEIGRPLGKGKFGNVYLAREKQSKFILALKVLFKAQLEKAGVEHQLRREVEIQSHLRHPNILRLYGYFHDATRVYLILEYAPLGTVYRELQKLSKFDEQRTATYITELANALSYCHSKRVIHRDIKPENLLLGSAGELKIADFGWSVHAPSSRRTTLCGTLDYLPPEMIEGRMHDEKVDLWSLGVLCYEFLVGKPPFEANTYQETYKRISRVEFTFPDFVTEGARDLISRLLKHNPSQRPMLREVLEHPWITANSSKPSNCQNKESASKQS
Sequence of PLK2 (Q9NYY3 whole entry): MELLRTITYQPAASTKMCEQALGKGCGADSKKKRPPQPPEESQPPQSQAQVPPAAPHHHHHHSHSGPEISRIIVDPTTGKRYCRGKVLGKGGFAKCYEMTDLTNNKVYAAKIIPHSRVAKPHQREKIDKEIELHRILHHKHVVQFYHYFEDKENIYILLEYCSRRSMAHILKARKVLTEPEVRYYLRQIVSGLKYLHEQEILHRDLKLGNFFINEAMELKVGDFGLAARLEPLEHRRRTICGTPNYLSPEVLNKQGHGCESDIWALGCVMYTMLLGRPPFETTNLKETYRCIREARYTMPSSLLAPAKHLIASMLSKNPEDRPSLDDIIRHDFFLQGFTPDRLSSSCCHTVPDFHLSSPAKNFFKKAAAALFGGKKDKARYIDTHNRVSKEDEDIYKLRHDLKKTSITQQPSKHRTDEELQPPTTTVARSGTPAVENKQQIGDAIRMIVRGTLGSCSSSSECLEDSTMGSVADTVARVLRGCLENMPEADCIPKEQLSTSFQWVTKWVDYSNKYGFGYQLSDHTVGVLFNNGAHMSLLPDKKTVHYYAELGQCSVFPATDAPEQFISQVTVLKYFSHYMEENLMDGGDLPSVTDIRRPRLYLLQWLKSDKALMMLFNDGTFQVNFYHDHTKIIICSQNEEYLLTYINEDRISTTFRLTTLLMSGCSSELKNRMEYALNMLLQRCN
Sequence of PAK2 (Q13177 whole entry): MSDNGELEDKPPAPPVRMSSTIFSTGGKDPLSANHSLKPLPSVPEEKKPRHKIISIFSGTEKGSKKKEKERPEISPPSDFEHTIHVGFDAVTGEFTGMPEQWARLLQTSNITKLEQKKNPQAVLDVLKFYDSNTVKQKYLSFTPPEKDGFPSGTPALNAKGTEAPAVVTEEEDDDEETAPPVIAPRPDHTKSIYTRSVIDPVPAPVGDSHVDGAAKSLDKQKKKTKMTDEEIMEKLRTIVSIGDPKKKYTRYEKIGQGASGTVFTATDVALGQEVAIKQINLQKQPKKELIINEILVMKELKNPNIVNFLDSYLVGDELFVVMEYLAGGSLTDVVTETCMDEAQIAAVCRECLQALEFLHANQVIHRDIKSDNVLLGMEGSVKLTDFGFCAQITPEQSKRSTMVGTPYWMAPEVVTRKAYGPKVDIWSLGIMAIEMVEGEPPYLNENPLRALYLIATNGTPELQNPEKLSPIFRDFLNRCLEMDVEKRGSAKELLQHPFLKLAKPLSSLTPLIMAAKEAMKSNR
Sequence of JAK3 (P52333 whole entry): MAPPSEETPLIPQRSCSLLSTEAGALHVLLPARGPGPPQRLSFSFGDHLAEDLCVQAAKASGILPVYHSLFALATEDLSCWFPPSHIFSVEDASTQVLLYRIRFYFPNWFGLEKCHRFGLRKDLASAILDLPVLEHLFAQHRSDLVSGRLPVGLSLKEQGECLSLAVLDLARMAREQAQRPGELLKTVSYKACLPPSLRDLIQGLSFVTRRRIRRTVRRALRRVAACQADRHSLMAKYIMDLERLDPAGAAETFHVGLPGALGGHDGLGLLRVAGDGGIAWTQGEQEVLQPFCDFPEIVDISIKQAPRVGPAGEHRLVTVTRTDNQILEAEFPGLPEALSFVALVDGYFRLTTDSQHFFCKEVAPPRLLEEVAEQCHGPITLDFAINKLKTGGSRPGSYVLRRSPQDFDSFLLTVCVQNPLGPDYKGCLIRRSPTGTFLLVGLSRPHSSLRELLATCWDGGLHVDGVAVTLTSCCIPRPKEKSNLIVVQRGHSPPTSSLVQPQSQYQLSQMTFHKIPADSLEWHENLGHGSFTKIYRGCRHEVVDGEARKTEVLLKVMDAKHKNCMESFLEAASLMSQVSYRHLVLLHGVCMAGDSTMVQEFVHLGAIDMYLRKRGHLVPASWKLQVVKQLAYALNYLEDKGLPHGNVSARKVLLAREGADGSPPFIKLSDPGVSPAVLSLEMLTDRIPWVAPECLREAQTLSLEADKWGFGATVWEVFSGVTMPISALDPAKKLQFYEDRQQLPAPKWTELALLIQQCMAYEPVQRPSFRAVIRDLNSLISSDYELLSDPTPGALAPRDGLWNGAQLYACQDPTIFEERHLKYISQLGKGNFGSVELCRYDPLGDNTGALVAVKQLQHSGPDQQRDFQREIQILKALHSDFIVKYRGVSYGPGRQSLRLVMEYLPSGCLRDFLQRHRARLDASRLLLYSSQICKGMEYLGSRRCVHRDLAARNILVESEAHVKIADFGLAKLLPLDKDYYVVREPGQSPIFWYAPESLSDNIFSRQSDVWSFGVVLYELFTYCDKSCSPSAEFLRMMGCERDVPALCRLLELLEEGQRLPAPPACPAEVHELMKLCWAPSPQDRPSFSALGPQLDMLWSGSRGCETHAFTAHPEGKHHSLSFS

Consider `COC(=O)c1ccc2[nH]c(C3CCN(c4ncnc5[nH]cc(Cl)c45)CC3)nc2c1` [Compound R10015, Methyl 2-(1-(5-chloro-7H-pyrrolo[2,3-d]pyrimidin-4-yl)piperidin-4-yl)-1H-benzo[d]imidazole-5-carboxylate], for which the activity at 1 µM in assay [1] came to 103%; in assay [2] it was 60.3%; in [4] it was 98.2%; in assay [5], 61.1%. Also, in assay [3], the “phosphorylation of PAK2” value was “not affected”. Besides, the “p24 release (virion release)” value in assay [6] was “inhibited”. For the same molecule, the IC50 is roughly 5 µM in assay [7] and roughly 10 µM in [9]. In addition, the “cofilin serine 3 phosphorylation” value in assay [8] is on record as “drastic inhibition”.
